Measurements as given in patent US8183296B2, “Pesticide phenyloxy substituted phenylamidine derivatives” (Bayer Cropscience AG, priority 2005, dated 2012).

Tests used:
[1] = logP by HPLC on reversed-phase column (C 18), EEC Directive 79/831 Annex V.A8; assay type: physicochemical; details: C 18, 40° C., 0.1% aqueous formic acid and acetonitrile; for chromatographic logP: reversed-phase HPLC column (C 18), read-out: logPa
Method: Temperature: 40° C.; Mobile phases: 0.1% aqueous formic acid and acetonitrile; linear gradient from 10% acetonitrile to 90% acetonitrile.
Calibration was carried out using unbranched alkan-2-ones (comprising 3 to 16 carbon atoms) with known logP values (determination of the logP values by the retention times using linear interpolation between two successive alkanones).

[2] = test system: Puccinia recondita f. Sp. tritici; assay: In vivo preventive test on Puccinia recondita f. Sp. tritici (wheat brown rust); details: topical, 240 h, 1000 ppm of active ingredient, evaluated 10 days after inoculation, read-out: efficacy
Method: In Vivo Preventive Test on Puccinia recondita f. Sp. tritici (Wheat Brown Rust)
(§1) To produce a suitable preparation of active compound, 1 part by weight of active compound is mixed with the stated amounts of solvent and emulsifier, and the concentrate is diluted with water to the desired concentration.
To test for preventive activity, young plants are […]. After the spray coating has dried on, the plants are sprayed with the preparation of active compound at the stated rate of application. The plants remain for 24 hours in an incubation cabinet at 20° C. and a relative atmospheric humidity of 100%.
The plants are placed in a greenhouse at a temperature of approximately 20° C. and a relative atmospheric humidity of approximately 80% to promote the development of rust pustules.
The test is evaluated 10 days after the inoculation. 0% means an efficacy which corresponds to that of the control, while an efficacy of 100% means that no disease is observed.

Alternaria solani = assay: In vivo protective test on Alternaria solani (leaf spot of tomato); details: topical, 168 h, 500 ppm of active ingredient, evaluated 7 days after inoculation, read-out: efficacy
Method: In Vivo Protective Test on Alternaria solani (Leaf Spot of Tomato)
as §1
To test for protective activity, young plants are sprayed with the preparation of active compound at the stated rate of application. After the spray coating has dried on, the plants are inoculated with an aqueous spore suspension of Alternatia solani. The plants remain for one day in an incubation cabinet at approximately 20° C. and a relative atmospheric humidity of 100%. Then the plants are placed in an incubation cabinet at approximately 20° C. and a relative atmospheric humidity of 96%.
The test is evaluated 7 days after the inoculation. 0% means an efficacy which corresponds to that of the control while an efficacy of 100% means that no disease is observed.

Sphaerotheca fuliginea = assay: In vivo protective test on Sphaerotheca fuliginea (cucumbers); details: Podosphaera fuliginea, topical, 168 h, 100 ppm of active ingredient, evaluated 7 days after inoculation, read-out: efficacy
Method: In Vivo Protective Test on Sahaerotheca fuliginea (Cucumbers)
as §1
To test for protect activity, young plants are sprayed with the preparation of active compound at the stated rate of application. After the spray coating has dried on, the plants are inoculated with an aqueous spore suspension of Sphaerotheca fuliginea. The plants are then placed in a greenhouse at approximately 23° C. and a relative atmospheric humidity of approximately 70%.
(§2) The test is evaluated 7 days after the inoculation. 0% means an efficacy which corresponds to that of the control, while an efficacy of 100% means that no disease is observed.

[3] = test system: Erysiphe graminis f.sp. hordei; assay: In vivo preventive test on Erysiphe graminis (powdery mildew on barley); details: Blumeria graminis, topical, 168 h, 1000 ppm of active ingredient, evaluated 7 days after inoculation, read-out: efficacy
Method: In Vivo Preventive Test on Erysiphe gramini (Powdery Mildew on Barley)
To produce a suitable preparation of active compound, 1 part by weight of active compound or active compound combination is mixed with the stated amounts of solvent and emulsifier, and the concentrate is diluted with water to the desired concentration.
To test for preventive activity, young plants are sprayed with the preparation of active compound or active compound combination at the stated rate of application.
After the spray coating has dried on, the plants are dusted with spores of Erysiphe graminis f.sp. hordei
The plants are placed in a greenhouse at a temperature of approximately 20° C. and a relative atmospheric humidity of approximately 80% to promote the development of mildew pustules.
as §2

Podosphaera leucotricha = assay: In vivo protective test on Podosphaera leucotricha (apples); details: topical, 240 h, 100 ppm of active ingredient, evaluated 10 days after inoculation, read-out: efficacy
Description: In Vivo Protective Test on Podosphaera leucotricha (Apples) [table] […] To test for protective activity, young plants are sprayed with the preparation of active compound at the stated rate of application. After the spray coating has dried on, the plants are inoculated with an aqueous spore suspension of the causal agent of apple mildew (Podosphaera leucotricha).

Row | SMILES | logPa [1] | chromatographic logP [1] | pest or weed control at 1000 ppm [2] [%] | also measured
1 | Cc1cc(Oc2cc(Cl)c(/N=C/N3CCCCC3C)cc2C)ccc1Cl (racemic) [Example 52] | 2.80 | – | – | –
2 | Cc1cc(/N=C/N2CCCCC2C)c(Cl)cc1Oc1ccc(Cl)c(C(C)(C)C)c1 (racemic) [Example 54] | 3.33 | – | – | –
3 | Cc1cc(/N=C/N2CCCCC2C)c(Cl)cc1Oc1ccc(Cl)c(C(C)C)c1 (racemic) [Example 62] | 3.07 | – | – | –
4 | CCN(C)/C=N/c1cc(C)c(Oc2ccc(Cl)c(C)c2)cc1C [Example 4] | – | 2.31 | – | –
5 | CCc1cc(Oc2cc(C)c(/N=C/N(C)CC)cc2C)ccc1Cl [Example 5] | – | 2.56 | ≥ 70 | pest or weed control at 500 ppm (Alternaria solani): ≥ 70%; pest or weed control at 100 ppm (Sphaerotheca fuliginea): ≥ 70%; pest or weed control at 1000 ppm [3]: ≥ 70%; pest or weed control at 100 ppm (Podosphaera leucotricha): ≥ 70%
6 | Cc1cc(Oc2ccc(Cl)c(C(C)(C)C)c2)c(C)cc1/N=C/N(C)C1CC1 [Example 7] | 2.21 | – | – | –
7 | CCCN(C)/C=N/c1cc(C)c(Oc2ccc(Cl)c(C(C)(C)C)c2)cc1C [Example 8] | – | 3.3 | ≥ 70 | pest or weed control at 500 ppm (Alternaria solani): ≥ 70%; pest or weed control at 100 ppm (Sphaerotheca fuliginea): ≥ 70%; pest or weed control at 1000 ppm [3]: ≥ 70%; pest or weed control at 100 ppm (Podosphaera leucotricha): ≥ 70%
8 | CCN(C)/C(S)=N/c1cc(C)c(Oc2ccc(Cl)c(C(C)(C)C)c2)cc1C [Example 10] | – | 5.12 | – | pest or weed control at 500 ppm (Alternaria solani): ≥ 70%; pest or weed control at 100 ppm (Sphaerotheca fuliginea): ≥ 70%; pest or weed control at 1000 ppm [3]: ≥ 70%; pest or weed control at 100 ppm (Podosphaera leucotricha): ≥ 70%
9 | CCCN(C)/C=N/c1cc(Cl)c(Oc2ccc(Cl)c(CC)c2)cc1C [Example 11] | – | 2.84 | ≥ 70 | pest or weed control at 100 ppm (Sphaerotheca fuliginea): ≥ 70%; pest or weed control at 1000 ppm [3]: ≥ 70%; pest or weed control at 100 ppm (Podosphaera leucotricha): ≥ 70%
10 | CCc1cc(Oc2cc(C)c(/N=C/N(C)C3CC3)cc2Cl)ccc1Cl [Example 12] | 2.89 | – | – | –
11 | CCc1cc(Oc2cc(C)c(/N=C/N(C)C3CC3)cc2C)ccc1Cl [Example 15] | 2.71 | – | – | –
12 | Cc1cc(Oc2cc(C)c(/N=C/N(C)C(C)C)cc2C)ccc1Cl [Example 16] | – | 2.4 | ≥ 70 | pest or weed control at 500 ppm (Alternaria solani): ≥ 70%; pest or weed control at 1000 ppm [3]: ≥ 70%; pest or weed control at 100 ppm (Podosphaera leucotricha): ≥ 70%
13 | Cc1cc(Oc2ccc(Cl)c(C(C)C)c2)c(Cl)cc1/N=C/N(C)C1CC1 [Example 23] | 2.96 | – | – | –
14 | Cc1cc(Oc2ccc(Cl)c(C(C)(C)C)c2)c(Cl)cc1/N=C/N(C)C1CC1 [Example 24] | 3.24 | – | – | –
15 | CCCN(C)/C=N/c1cc(C)c(Oc2ccc(Cl)c(C(C)C)c2)cc1C [Example 27] | – | 3 | ≥ 70 | pest or weed control at 100 ppm (Sphaerotheca fuliginea): ≥ 70%; pest or weed control at 1000 ppm [3]: ≥ 70%; pest or weed control at 100 ppm (Podosphaera leucotricha): ≥ 70%
16 | CCN(C)/C(S)=N/c1cc(C)c(Oc2ccc(Cl)c(C(C)C)c2)cc1C [Example 29] | – | 4.81 | ≥ 70 | pest or weed control at 100 ppm (Sphaerotheca fuliginea): ≥ 70%; pest or weed control at 100 ppm (Podosphaera leucotricha): ≥ 70%
17 | Cc1cc(Oc2ccc(Br)c(C(C)C)c2)c(Cl)cc1/N=C/N(C)C1CC1 [Example 31] | 3.98 | – | – | –
18 | Cc1cc(Oc2ccc(Br)c(C(C)C)c2)c(Cl)cc1/N=C/N(C)C(C)C [Example 33] | – | 3.21 | – | –
19 | CCCN(C)/C=N/c1cc(Cl)c(Oc2ccc(Br)c(C(C)C)c2)cc1C [Example 34] | – | 2.91 | ≥ 70 | pest or weed control at 100 ppm (Sphaerotheca fuliginea): ≥ 70%; pest or weed control at 1000 ppm [3]: ≥ 70%; pest or weed control at 100 ppm (Podosphaera leucotricha): ≥ 70%
20 | CCN(C)/C(S)=N/c1cc(C)c(Oc2ccc(Cl)c(C(C)(C)C)c2)cc1C [Example 35] | 5.44 | – | ≥ 70 | –
21 | Cc1cc(Oc2ccc(Cl)c(C(C)(C)C)c2)c(Cl)cc1/N=C/N1CCCCC1 [Example 36] | 3.11 | – | – | –
22 | CCc1cc(Oc2cc(C)c(/N=C/N3CCCCC3)cc2Cl)ccc1Cl [Example 37] | 2.74 | – | – | –
23 | CCN(C)/C=N/c1cc(C#N)c(Oc2ccc(Cl)c(C(C)C)c2)cc1C [Example 38] | – | 2.45 | ≥ 70 | pest or weed control at 1000 ppm [3]: ≥ 70%

Row | SMILES | logPa [1] | chromatographic logP [1] | pest or weed control at 1000 ppm [2] [%] | also measured
24 | Cc1cc(/N=C/N(C)C(C)C)c(Cl)cc1Oc1ccc(Cl)c(C(C)(C)C)c1 [Example 39] | – | 3.01 | ≥ 70 | pest or weed control at 100 ppm (Sphaerotheca fuliginea): ≥ 70%; pest or weed control at 1000 ppm [3]: ≥ 70%
25 | CCC(C)N(C)/C=N/c1cc(C)c(Oc2ccc(Cl)c(C(C)(C)C)c2)cc1C (stereo not drawn) [Example 40] | – | 3.2 | ≥ 70 | pest or weed control at 100 ppm (Sphaerotheca fuliginea): ≥ 70%
26 | CCC(C)N(C)/C=N/c1cc(C)c(Oc2ccc(Cl)c(C(C)C)c2)cc1C (stereo not drawn) [Example 41] | – | 2.98 | ≥ 70 | pest or weed control at 100 ppm (Sphaerotheca fuliginea): ≥ 70%
27 | CCC(C)N(C)/C=N/c1cc(Cl)c(Oc2ccc(Cl)c(C(C)C)c2)cc1C (stereo not drawn) [Example 42] | – | 2.9 | ≥ 70 | –
28 | CCC(C)N(C)/C=N/c1cc(Cl)c(Oc2ccc(Cl)c(C(C)(C)C)c2)cc1C (stereo not drawn) [Example 43] | – | 3.19 | – | –
29 | Cc1cc(Oc2cc(C)c(/N=C/N(C)C(C)C)cc2C)ccc1F [Example 44] | – | 2.29 | ≥ 70 | pest or weed control at 100 ppm (Sphaerotheca fuliginea): ≥ 70%
30 | Cc1cc(Oc2ccc(Cl)c(C(C)(C)C)c2)c(C)cc1/N=C/N1CCCCC1 [Example 45] | 3.02 | – | – | –
31 | CCN(C)/C=N/c1cc(C)c(Oc2ccc(Cl)c(CC(C)(C)C)c2)cc1C [Example 46] | 3.11 | – | – | –
32 | CCN(C)/C=N/c1cc(C)c(Oc2ccc(Cl)c(C[Si](C)(C)C)c2)cc1C [Example 47] | 3.01 | – | – | –
33 | CCN(C)/C=N/c1cc(C)c(Oc2ccc(Cl)c(C3CCCCC3)c2)cc1C [Example 48] | 3.18 | – | – | –
34 | CCN(C)/C=N/c1cc(C)c(Oc2ccc(Cl)c(C)c2)cc1Cl [Example 49] | – | 2.39 | – | –
35 | Cc1cc(Oc2cc(Cl)c(/N=C/N(C)C(C)C)cc2C)ccc1Cl [Example 50] | – | 2.48 | – | –
36 | Cc1cc(Oc2cc(Cl)c(/N=C/N3CCCCC3)cc2C)ccc1Cl [Example 51] | 2.58 | – | – | –
37 | Cc1cc(/N=C/N2CCCCC2)c(Cl)cc1Oc1ccc(Cl)c(C(C)(C)C)c1 [Example 53] | 3.25 | – | – | –
38 | CCCCc1cc(Oc2cc(C)c(/N=C/N(C)CC)cc2C)ccc1Cl [Example 55] | – | 2.95 | ≥ 70 | –
39 | CCN(C)/C=N/c1cc(C)c(Oc2ccc(Cl)c(CC(C)C)c2)cc1C [Example 56] | – | 2.92 | ≥ 70 | –
40 | CCN(C)/C=N/c1cc(C)c(Oc2ccc(Cl)c(C(C)(C)OC)c2)cc1C [Example 57] | 2.26 | – | – | –
41 | CCN(C)/C=N/c1cc(C)c(Oc2ccc(Cl)c(C(C)C)c2)cc1Cl [Example 60] | – | 2.78 | – | –
42 | Cc1cc(Oc2ccc(Cl)c(C(C)(C)C)c2)c(C)cc1/N=C/N1CCC(F)(F)CC1 [Example 61] | 3.25 | – | – | –
43 | CCN(C)/C=N/c1cc(Br)c(Oc2ccc(Cl)c(C(C)(C)C)c2)cc1C [Example 63] | – | 2.67 | – | –
44 | CCN(C)/C=N/c1cc(C)c(Oc2ccc(Cl)c(C3CCCC3)c2)cc1C [Example 64] | 3.28 | – | – | –
45 | Cc1cc(Oc2ccc(Cl)c(CC(C)(C)C)c2)c(C)cc1/N=C/N1CCCCC1 [Example 65] | 3.19 | – | – | –
